From article PMC10974149, “Acheta domesticus: A Natural Source of Anti-Skin-Aging Ingredients for Cosmetic Applications” (Pharmaceuticals, 2024)
Converted amounts (≈) assume the structure as drawn.

Target: T1, collagenase from Clostridium histolyticum
T1 construct: gene colG
Experiment: spectrophotometric collagenase inhibition assay
Type: biochemical
Details: positive control; substrate not stated in the assay section (FALGPA among reagents)
Description: spectrophotometric collagenase inhibition assay on collagenase from Clostridium histolyticum

SMILES: CC1(C)CC[C@]2(C(=O)O)CC[C@]3(C)C(=CC[C@@H]4[C@@]5(C)CC[C@H](O)C(C)(C)[C@@H]5CC[C@]43C)[C@@H]2C1 [OA, Oleanolic acid]
- IC50 (μg/mL) / Collagenase Inhibition: 3 ± 1 µg/mL (≈ 6.57 µM)
